ChEMBL document CHEMBL3351651 (Bioorg Med Chem, 2014)

Tested on: Mus musculus
Assay: Hypolipidiemic activity in tyloxapol-induced ICR mouse hyperlipidemic model assessed as reduction in serum cholesterol level at 25 mg/kg, ip after 24 hrs
Type: functional
Design: scale not given: the % may be the effect or the level left
Conditions: route intraperitoneal
In the case of `CCCCc1cc(OC)c(OC)cc1O`, the Activity is reported as -70.1%.
With `CCc1cc(OC)c(OCC(=O)OC)cc1O` the Activity was -79.08%.
`CCC(=O)c1cc(OC)c(OC)cc1O` showed an Activity of -81.69%.
For `CCCC(=O)c1cc(OC)c(OC)cc1O`, the Activity was -74.28%.
For `COC(=O)COc1cc(O)c(C(C)=O)cc1OC`, the Activity was -74.72%.
With `CCC(=O)c1cc(OC)c(OCC(=O)OC)cc1O` the Activity was -68.18%.
Compound `CCCC(=O)c1cc(OC)c(OCC(=O)OC)cc1O` has an Activity of -78.38%.

Tested on: Mus musculus
Assay: Hypolipidiemic activity in tyloxapol-induced ICR mouse hyperlipidemic model assessed as reduction in serum cholesterol level at 50 mg/kg, ip after 24 hrs
Type: functional
Design: scale not given: the % may be the effect or the level left
Conditions: route intraperitoneal
Compound `CCCCc1cc(OC)c(OC)cc1O` has an Activity of -67.04%.
With `CCc1cc(OC)c(OCC(=O)OC)cc1O` the Activity was -69.22%.
In the case of `CCC(=O)c1cc(OC)c(OC)cc1O`, the Activity is reported as -81.95%.
For `CCCC(=O)c1cc(OC)c(OC)cc1O`, the Activity was -81.4%.
`COC(=O)COc1cc(O)c(C(C)=O)cc1OC` gave an Activity of -72.71%.
For `CCC(=O)c1cc(OC)c(OCC(=O)OC)cc1O`, the Activity was -66.87%.
With `CCCC(=O)c1cc(OC)c(OCC(=O)OC)cc1O` the Activity was -49.26%.

Tested on: Mus musculus
Assay: Hypolipidiemic activity in tyloxapol-induced ICR mouse hyperlipidemic model assessed as reduction in serum cholesterol level at 100 mg/kg, ip after 24 hrs
Type: functional
Design: scale not given: the % may be the effect or the level left
Conditions: route intraperitoneal
For `CCCCc1cc(OC)c(OC)cc1O`, the Activity was -70.1%.
`CCc1cc(OC)c(OCC(=O)OC)cc1O` showed an Activity of -78.2%.
Work on `CCC(=O)c1cc(OC)c(OC)cc1O` yielded an Activity of -81.43%.
For `CCCC(=O)c1cc(OC)c(OC)cc1O`, the Activity was -83.26%.
With `COC(=O)COc1cc(O)c(C(C)=O)cc1OC` the Activity was -75.33%.
`CCC(=O)c1cc(OC)c(OCC(=O)OC)cc1O` gave an Activity of -74.46%.
With `CCCC(=O)c1cc(OC)c(OCC(=O)OC)cc1O` the Activity was -73.23%.

Tested on: Mus musculus
Assay: Hypolipidiemic activity in tyloxapol-induced ICR mouse hyperlipidemic model assessed as reduction in serum LDL-cholesterol level at 25 mg/kg, ip after 24 hrs
Type: functional
Design: scale not given: the % may be the effect or the level left
Conditions: route intraperitoneal
In the case of `CCCCc1cc(OC)c(OC)cc1O`, the Activity is reported as -74.78%.
Compound `CCc1cc(OC)c(OCC(=O)OC)cc1O` has an Activity of -86.14%.
`CCC(=O)c1cc(OC)c(OC)cc1O` gave an Activity of -86.72%.
With `CCCC(=O)c1cc(OC)c(OC)cc1O` the Activity was -80.65%.
Work on `COC(=O)COc1cc(O)c(C(C)=O)cc1OC` yielded an Activity of -81.62%.
`CCC(=O)c1cc(OC)c(OCC(=O)OC)cc1O` showed an Activity of -72.18%.
Work on `CCCC(=O)c1cc(OC)c(OCC(=O)OC)cc1O` yielded an Activity of -84.7%.

Tested on: Mus musculus
Assay: Hypolipidiemic activity in tyloxapol-induced ICR mouse hyperlipidemic model assessed as reduction in serum LDL-cholesterol level at 50 mg/kg, ip after 24 hrs
Type: functional
Design: scale not given: the % may be the effect or the level left
Conditions: route intraperitoneal
With `CCCCc1cc(OC)c(OC)cc1O` the Activity was -70.93%.
For `CCc1cc(OC)c(OCC(=O)OC)cc1O`, the Activity was -75.26%.
`CCC(=O)c1cc(OC)c(OC)cc1O` showed an Activity of -87.68%.
`CCCC(=O)c1cc(OC)c(OC)cc1O` gave an Activity of -87.97%.
Work on `COC(=O)COc1cc(O)c(C(C)=O)cc1OC` yielded an Activity of -76.9%.
In the case of `CCC(=O)c1cc(OC)c(OCC(=O)OC)cc1O`, the Activity is reported as -76.03%.
`CCCC(=O)c1cc(OC)c(OCC(=O)OC)cc1O` gave an Activity of -54.28%.

Tested on: Mus musculus
Assay: Hypolipidiemic activity in tyloxapol-induced ICR mouse hyperlipidemic model assessed as reduction in serum LDL-cholesterol level at 100 mg/kg, ip after 24 hrs
Type: functional
Design: scale not given: the % may be the effect or the level left
Conditions: route intraperitoneal
For `CCCCc1cc(OC)c(OC)cc1O`, the Activity was -74.69%.
Work on `CCc1cc(OC)c(OCC(=O)OC)cc1O` yielded an Activity of -82.58%.
With `CCC(=O)c1cc(OC)c(OC)cc1O` the Activity was -88.35%.
Compound `CCCC(=O)c1cc(OC)c(OC)cc1O` has an Activity of -88.74%.
`COC(=O)COc1cc(O)c(C(C)=O)cc1OC` gave an Activity of -85.76%.
With `CCC(=O)c1cc(OC)c(OCC(=O)OC)cc1O` the Activity was -81.33%.
Work on `CCCC(=O)c1cc(OC)c(OCC(=O)OC)cc1O` yielded an Activity of -79.4%.

Tested on: Mus musculus
Assay: Hypolipidiemic activity in tyloxapol-induced ICR mouse hyperlipidemic model assessed as increase in serum HDL-cholesterol level at 25 mg/kg, ip after 24 hrs
Type: functional
Conditions: route intraperitoneal
In the case of `CCCCc1cc(OC)c(OC)cc1O`, the Activity is reported as 23.73%.
In the case of `CCc1cc(OC)c(OCC(=O)OC)cc1O`, the Activity is reported as 40.68%.
Compound `CCC(=O)c1cc(OC)c(OC)cc1O` has an Activity of 6.78%.
`CCCC(=O)c1cc(OC)c(OC)cc1O` gave an Activity of 33.9%.
`COC(=O)COc1cc(O)c(C(C)=O)cc1OC` showed an Activity of 8.47%.
For `CCC(=O)c1cc(OC)c(OCC(=O)OC)cc1O`, the Activity was -3.39%.
For `CCCC(=O)c1cc(OC)c(OCC(=O)OC)cc1O`, the Activity was 30.51%.

Tested on: Mus musculus
Assay: Hypolipidiemic activity in tyloxapol-induced ICR mouse hyperlipidemic model assessed as increase in serum HDL-cholesterol level at 50 mg/kg, ip after 24 hrs
Type: functional
Conditions: route intraperitoneal
In the case of `CCCCc1cc(OC)c(OC)cc1O`, the Activity is reported as 11.86%.
`CCc1cc(OC)c(OCC(=O)OC)cc1O` gave an Activity of 28.81%.
Work on `CCC(=O)c1cc(OC)c(OC)cc1O` yielded an Activity of 16.95%.
In the case of `CCCC(=O)c1cc(OC)c(OC)cc1O`, the Activity is reported as 30.51%.
`COC(=O)COc1cc(O)c(C(C)=O)cc1OC` gave an Activity of 1.69%.
With `CCC(=O)c1cc(OC)c(OCC(=O)OC)cc1O` the Activity was 66.1%.
Work on `CCCC(=O)c1cc(OC)c(OCC(=O)OC)cc1O` yielded an Activity of 20.34%.

Tested on: Mus musculus
Assay: Hypolipidiemic activity in tyloxapol-induced ICR mouse hyperlipidemic model assessed as increase in serum HDL-cholesterol level at 100 mg/kg, ip after 24 hrs
Type: functional
Conditions: route intraperitoneal
Work on `CCCCc1cc(OC)c(OC)cc1O` yielded an Activity of 23.73%.
In the case of `CCc1cc(OC)c(OCC(=O)OC)cc1O`, the Activity is reported as -3.39%.
`CCC(=O)c1cc(OC)c(OC)cc1O` showed an Activity of 40.68%.
With `CCCC(=O)c1cc(OC)c(OC)cc1O` the Activity was 8.47%.
Compound `COC(=O)COc1cc(O)c(C(C)=O)cc1OC` has an Activity of 13.56%.
`CCC(=O)c1cc(OC)c(OCC(=O)OC)cc1O` gave an Activity of 45.76%.
Work on `CCCC(=O)c1cc(OC)c(OCC(=O)OC)cc1O` yielded an Activity of 35.59%.

Tested on: Mus musculus
Assay: Hypolipidiemic activity in tyloxapol-induced ICR mouse hyperlipidemic model assessed as reduction in serum triglyceride level at 25 mg/kg, ip after 24 hrs
Type: functional
Design: scale not given: the % may be the effect or the level left
Conditions: route intraperitoneal
`CCCCc1cc(OC)c(OC)cc1O` showed an Activity of -82.57%.
`CCc1cc(OC)c(OCC(=O)OC)cc1O` showed an Activity of -72.94%.
`CCC(=O)c1cc(OC)c(OC)cc1O` gave an Activity of -80.09%.
For `CCCC(=O)c1cc(OC)c(OC)cc1O`, the Activity was -69.54%.
For `COC(=O)COc1cc(O)c(C(C)=O)cc1OC`, the Activity was -28.62%.
`CCC(=O)c1cc(OC)c(OCC(=O)OC)cc1O` showed an Activity of -59.82%.
Work on `CCCC(=O)c1cc(OC)c(OCC(=O)OC)cc1O` yielded an Activity of -73.12%.

Tested on: Mus musculus
Assay: Hypolipidiemic activity in tyloxapol-induced ICR mouse hyperlipidemic model assessed as reduction in serum triglyceride level at 50 mg/kg, ip after 24 hrs
Type: functional
Design: scale not given: the % may be the effect or the level left
Conditions: route intraperitoneal
For `CCCCc1cc(OC)c(OC)cc1O`, the Activity was -79.17%.
With `CCc1cc(OC)c(OCC(=O)OC)cc1O` the Activity was -59.63%.
`CCC(=O)c1cc(OC)c(OC)cc1O` gave an Activity of -81.01%.
For `CCCC(=O)c1cc(OC)c(OC)cc1O`, the Activity was -77.25%.
With `COC(=O)COc1cc(O)c(C(C)=O)cc1OC` the Activity was -74.77%.
With `CCC(=O)c1cc(OC)c(OCC(=O)OC)cc1O` the Activity was -31.93%.
In the case of `CCCC(=O)c1cc(OC)c(OCC(=O)OC)cc1O`, the Activity is reported as -27.8%.

Tested on: Mus musculus
Assay: Hypolipidiemic activity in tyloxapol-induced ICR mouse hyperlipidemic model assessed as reduction in serum triglyceride level at 100 mg/kg, ip after 24 hrs
Type: functional
Design: scale not given: the % may be the effect or the level left
Conditions: route intraperitoneal
In the case of `CCCCc1cc(OC)c(OC)cc1O`, the Activity is reported as -83.94%.
Compound `CCc1cc(OC)c(OCC(=O)OC)cc1O` has an Activity of -75.87%.
In the case of `CCC(=O)c1cc(OC)c(OC)cc1O`, the Activity is reported as -80.92%.
Work on `CCCC(=O)c1cc(OC)c(OC)cc1O` yielded an Activity of -79.36%.
For `COC(=O)COc1cc(O)c(C(C)=O)cc1OC`, the Activity was -51.38%.
Work on `CCC(=O)c1cc(OC)c(OCC(=O)OC)cc1O` yielded an Activity of -75.41%.
For `CCCC(=O)c1cc(OC)c(OCC(=O)OC)cc1O`, the Activity was -73.58%.

Tested on: not listed separately
Assay: Metabolic stability in presence of pepsin (unknown origin) assessed as retention time by HPLC analysis
Type: ADME
Conditions: human, isolated protein
For `CCCCc1cc(OC)c(OC)cc1O`, the Retention_time was 12.45 min.
`CCc1cc(OC)c(OCC(=O)OC)cc1O` gave a Retention_time of 7.78 min.
Work on `CCCC(=O)c1cc(OC)c(OC)cc1O` yielded a Retention_time of 13.84 min.
Work on `COC(=O)COc1cc(O)c(C(C)=O)cc1OC` yielded a Retention_time of 8.67 min.
Work on `CCCC(=O)c1cc(OC)c(OCC(=O)OC)cc1O` yielded a Retention_time of 13.16 min.

Tested on: not listed separately
Assay: Metabolic stability in presence of alpha-chymotrypsin (unknown origin) assessed as retention time by HPLC analysis
Type: ADME
Conditions: human
`CCCCc1cc(OC)c(OC)cc1O` showed a Retention_time of 12.44 min.
Work on `CCc1cc(OC)c(OCC(=O)OC)cc1O` yielded a Retention_time of 7.78 min.
Work on `CCCC(=O)c1cc(OC)c(OC)cc1O` yielded a Retention_time of 13.83 min.
Work on `COC(=O)COc1cc(O)c(C(C)=O)cc1OC` yielded a Retention_time of 8.68 min.
Work on `CCCC(=O)c1cc(OC)c(OCC(=O)OC)cc1O` yielded a Retention_time of 13.18 min.
